Results from patent publication US6737383B1, “Herbicidal oxadiazolidines” (priority 1999, dated 2004).

Key:
surinam grass = experiment: Test B pre/postemergence surinam grass; assay type: in vivo, Brachiaria decumbens; conditions: for B. signalgrass plant response rating: scale of 0 to 10 where 0 is no effect and 10 is complete control
Method in brief: (§1)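 Response is a visual 0-to-10 score relative to untreated plants, where 0 means no effect and 10 means complete control, taken twelve to sixteen days after application. Treatments went onto soil at planting and onto foliage of 1- to 4-leaf plants, using a surfactant-containing non-phytotoxic solvent.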

smallflower flatsedge = experiment: Test B flood test smallflower flatsedge; assay type: in vivo, Cyperus difformis
Method in brief: (§2)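 Each value is a visual injury score relative to controls, with 10 meaning complete control and 0 no effect. Evaluation took place twelve to sixteen days after the 2-leaf-stage plants were treated and kept in the greenhouse.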

rape = experiment: Test B pre/postemergence rape; assay type: in vivo, Brassica napus; conditions: for Rape plant response rating: scale of 0 to 10 where 0 is no effect and 10 is complete control
Method in brief: as §1

duck salad = experiment: Test B flood test duck salad; assay type: in vivo, Heteranthera limosa
Method in brief: as §2

purple nutsedge = experiment: Test B pre/postemergence purple nutsedge; assay type: in vivo, Cyperus rotundus; conditions: for Nutsedge plant response rating: scale of 0 to 10 where 0 is no effect and 10 is complete control
Method in brief: as §1

blackgrass = experiment: Test B pre/postemergence blackgrass; assay type: in vivo, Alopecurus myosuroides; conditions: for Blackgrass plant response rating: scale of 0 to 10 where 0 is no effect and 10 is complete control
Method in brief: as §1

pigweed = experiment: Test B pre/postemergence pigweed; assay type: in vivo, Amaranthus retroflexus; conditions: for Redroot pigweed plant response rating: scale of 0 to 10 where 0 is no effect and 10 is complete control
Method in brief: as §1

giant foxtail = experiment: Test B pre/postemergence giant foxtail; assay type: in vivo, Setaria faberii; conditions: for Giant foxtail plant response rating: scale of 0 to 10 where 0 is no effect and 10 is complete control
Method in brief: as §1

morningglory = experiment: Test B pre/postemergence morningglory; assay type: in vivo, Ipomoea hederacea; conditions: for Morningglory plant response rating: scale of 0 to 10 where 0 is no effect and 10 is complete control
Method in brief: as §1

bamyardgrass = experiment: Test B flood test barnyardgrass; assay type: in vivo, Echinochloa crus-galli
Method in brief: as §2

wheat = experiment: Test B pre/postemergence wheat; assay type: in vivo, Triticum aestivum; conditions: for Wheat plant response rating: scale of 0 to 10 where 0 is no effect and 10 is complete control
Method in brief: as §1

wild oat = experiment: Test B pre/postemergence wild oat; assay type: in vivo, Avena fatua; conditions: for Wild oats plant response rating: scale of 0 to 10 where 0 is no effect and 10 is complete control
Method in brief: as §1

cocklebur = experiment: Test B pre/postemergence cocklebur; assay type: in vivo, Xanthium strumarium; conditions: for Cocklebur plant response rating: scale of 0 to 10 where 0 is no effect and 10 is complete control
Method in brief: as §1

sugar beet = experiment: Test B pre/postemergence sugar beet; assay type: in vivo, Beta vulgaris; conditions: for Sugarbeets plant response rating: scale of 0 to 10 where 0 is no effect and 10 is complete control
Method in brief: as §1

soybean = experiment: Test B pre/postemergence soybean; assay type: in vivo, Glycine max; conditions: for Soybean plant response rating: scale of 0 to 10 where 0 is no effect and 10 is complete control
Method in brief: as §1

[1] = Postemergence, Rate 125 g/ha, scale 0 to 10, 0 is no effect, 10 is complete control
[2] = Postemergence, Rate 250 g/ha, scale 0 to 10, 0 is no effect, 10 is complete control
[3] = Preemergence, Rate 62 g/ha, scale 0 to 10 (0 no effect, 10 complete control)
[4] = Rate 500 g/ha, Postemergence, scale 0 to 10, 0 no effect, 10 complete control
[5] = Rate 62 g/ha, flood test species, Pre-emergence, visual evaluation after twelve to sixteen days
[6] = Rate 125 g/ha, under heading Pre-emergence, flood test species, visual evaluation after twelve to sixteen days
[7] = Rate 250 g/ha, Pre-emergence, flood-test species, scale 0 to 10, 0 is no effect, 10 is complete control
[8] = Rate 500 g/ha, Pre-emergence, flood test species, scale 0 to 10 (0 no effect, 10 complete control)

CC(C)N(C(=O)n1oc(=O)n(CCl)c1=O)c1ccc(F)cc1 [Compound 376]
0: Plant response rating, B. signalgrass (surinam grass; [1]) | Plant response rating, B. signalgrass (surinam grass; [2]) | Plant response rating, B. signalgrass (surinam grass; [3]) | B. signalgrass plant response rating (0 to 10 scale, 0 is no effect, 10 is complete control) (surinam grass; Preemergence, Rate 125 g/ha) | B. signalgrass plant response rating (surinam grass; Preemergence, Rate 250 g/ha) | B. signalgrass plant response rating (surinam grass; Preemergence, Rate 500 g/ha) | B. signalgrass plant response rating (surinam grass; Rate 62 g/ha, Postemergence) | Plant response rating, B. signalgrass (surinam grass; [4]) | Plant response rating, S. Flatsedge (0 to 10 scale, 0 is no effect, 10 is complete control) (smallflower flatsedge; [5]) | S. Flatsedge plant response rating (0 to 10 scale, 0 is no effect, 10 is complete control) (smallflower flatsedge; [6]) | S. Flatsedge plant response rating (smallflower flatsedge; [7]) | S. Flatsedge plant response rating (smallflower flatsedge; [8]) | Plant response rating, Rape (rape; [1]) | Plant response rating, Rape (rape; [2]) | Plant response rating, Rape (rape; [3]) | Rape plant response rating (0 to 10 scale) (rape; Preemergence, Rate 125 g/ha) | Rape plant response rating (rape; Preemergence, Rate 250 g/ha) | Rape plant response rating (rape; Preemergence, Rate 500 g/ha) | Rape plant response rating (rape; Rate 62 g/ha, Postemergence) | Plant response rating, Rape (rape; [4]) | Plant response rating, Ducksalad (0 to 10 scale, 0 is no effect, 10 is complete control) (duck salad; [5]) | Ducksalad plant response rating (0 to 10 scale, 0 is no effect, 10 is complete control) (duck salad; [6]) | Ducksalad plant response rating (duck salad; [7]) | Ducksalad plant response rating (duck salad; [8]) | Plant response rating, Nutsedge (purple nutsedge; [1]) | Plant response rating, Nutsedge (purple nutsedge; [2]) | Plant response rating, Nutsedge (purple nutsedge; [3]) | Nutsedge plant response rating (0 to 10 scale) (purple nutsedge; Preemergence, Rate 125 g/ha) | Nutsedge plant response rating (purple nutsedge; Preemergence, Rate 250 g/ha) | Nutsedge plant response rating (purple nutsedge; Preemergence, Rate 500 g/ha) | Nutsedge plant response rating (purple nutsedge; Rate 62 g/ha, Postemergence) | Plant response rating, Nutsedge (purple nutsedge; [4]) | Plant response rating, Blackgrass (blackgrass; [1]) | Plant response rating, Blackgrass (blackgrass; [2]) | Plant response rating, Blackgrass (blackgrass; [3]) | Blackgrass plant response rating (0 to 10 scale) (blackgrass; Preemergence, Rate 125 g/ha) | Blackgrass plant response rating (blackgrass; Preemergence, Rate 250 g/ha) | Blackgrass plant response rating (blackgrass; Preemergence, Rate 500 g/ha) | Blackgrass plant response rating (blackgrass; Rate 62 g/ha, Postemergence) | Plant response rating, Blackgrass (blackgrass; [4]) | Plant response rating, Redroot pigweed (pigweed; [1]) | Plant response rating, Redroot pigweed (pigweed; [2]) | Plant response rating, Redroot pigweed (pigweed; [3]) | Redroot pigweed plant response rating (0 to 10 scale) (pigweed; Preemergence, Rate 125 g/ha) | Redroot pigweed plant response rating (pigweed; Preemergence, Rate 250 g/ha) | Redroot pigweed plant response rating (pigweed; Preemergence, Rate 500 g/ha) | Redroot pigweed plant response rating (pigweed; Rate 62 g/ha, Postemergence) | Plant response rating, Redroot pigweed (pigweed; [4]) | Plant response rating, Giant foxtail (giant foxtail; [1]) | Plant response rating, Giant foxtail (giant foxtail; [2]) | Plant response rating, Giant foxtail (giant foxtail; [3]) | Giant foxtail plant response rating (0 to 10 scale) (giant foxtail; Preemergence, Rate 125 g/ha) | Giant foxtail plant response rating (giant foxtail; Preemergence, Rate 250 g/ha) | Giant foxtail plant response rating (giant foxtail; Preemergence, Rate 500 g/ha) | Giant foxtail plant response rating (giant foxtail; Rate 62 g/ha, Postemergence) | Plant response rating, Giant foxtail (giant foxtail; [4]) | Plant response rating, Morningglory (morningglory; [1]) | Plant response rating, Morningglory (morningglory; [2]) | Plant response rating, Morningglory (morningglory; [3]) | Morningglory plant response rating (0 to 10 scale) (morningglory; Preemergence, Rate 125 g/ha) | Morningglory plant response rating (morningglory; Preemergence, Rate 250 g/ha) | Morningglory plant response rating (morningglory; Preemergence, Rate 500 g/ha) | Morningglory plant response rating (morningglory; Rate 62 g/ha, Postemergence) | Plant response rating, Morningglory (morningglory; [4]) | Plant response rating, Barnyardgrass (0 to 10 scale, 0 is no effect, 10 is complete control) (bamyardgrass; [5]) | Barnyardgrass plant response rating (0 to 10 scale, 0 is no effect, 10 is complete control) (bamyardgrass; [6]) | Barnyardgrass plant response rating (bamyardgrass; [7]) | Barnyardgrass plant response rating (bamyardgrass; [8]) | Plant response rating, Wheat (wheat; [1]) | Plant response rating, Wheat (wheat; [2]) | Plant response rating, Wheat (wheat; [3]) | Wheat plant response rating (0 to 10 scale) (wheat; Preemergence, Rate 125 g/ha) | Wheat plant response rating (wheat; Preemergence, Rate 250 g/ha) | Wheat plant response rating (wheat; Preemergence, Rate 500 g/ha) | Wheat plant response rating (wheat; Rate 62 g/ha, Postemergence) | Plant response rating, Wheat (wheat; [4]) | Plant response rating, Wild oats (wild oat; [1]) | Plant response rating, Wild oats (wild oat; [2]) | Plant response rating, Wild oats (wild oat; [3]) | Wild oats plant response rating (0 to 10 scale) (wild oat; Preemergence, Rate 125 g/ha) | Wild oats plant response rating (wild oat; Preemergence, Rate 250 g/ha) | Wild oats plant response rating (wild oat; Preemergence, Rate 500 g/ha) | Wild oats plant response rating (wild oat; Rate 62 g/ha, Postemergence) | Plant response rating, Wild oats (wild oat; [4]) | Plant response rating, Cocklebur (cocklebur; [1]) | Plant response rating, Cocklebur (cocklebur; [2]) | Plant response rating, Cocklebur (cocklebur; [3]) | Cocklebur plant response rating (0 to 10 scale) (cocklebur; Preemergence, Rate 125 g/ha) | Cocklebur plant response rating (cocklebur; Preemergence, Rate 250 g/ha) | Cocklebur plant response rating (cocklebur; Preemergence, Rate 500 g/ha) | Cocklebur plant response rating (cocklebur; Rate 62 g/ha, Postemergence) | Plant response rating, Cocklebur (cocklebur; [4]) | Plant response rating, Sugarbeets (sugar beet; [1]) | Plant response rating, Sugarbeets (sugar beet; [2]) | Plant response rating, Sugarbeets (sugar beet; [3]) | Sugarbeets plant response rating (0 to 10 scale) (sugar beet; Preemergence, Rate 125 g/ha) | Sugarbeets plant response rating (sugar beet; Preemergence, Rate 250 g/ha) | Sugarbeets plant response rating (sugar beet; Preemergence, Rate 500 g/ha) | Sugarbeets plant response rating (sugar beet; Rate 62 g/ha, Postemergence) | Plant response rating, Sugarbeets (sugar beet; [4]) | Plant response rating, Soybean (soybean; [1]) | Plant response rating, Soybean (soybean; [2]) | Plant response rating, Soybean (soybean; [3]) | Soybean plant response rating (0 to 10 scale) (soybean; Preemergence, Rate 125 g/ha) | Soybean plant response rating (soybean; Preemergence, Rate 250 g/ha) | Soybean plant response rating (soybean; Preemergence, Rate 500 g/ha) | Soybean plant response rating (soybean; Rate 62 g/ha, Postemergence) | Plant response rating, Soybean (soybean; [4])
